# Literature values in patent publication US12702587B2, “Ophthalmic device” (aVISI Ltd., priority 2020, dated 2026).
# Counter-ions that a name gives are not always drawn.
# Settings: from chitosan nanoparticles; phosphate buffer saline of pH 7.4; in vitro
smiles,measurement,value
CC(C)(C)NC[C@H](O)COc1nsnc1N1CCOCC1 [timolol maleate],release of timolol maleate (duration of slow release),up to 24 hours
